The series in a line: refractive index (Na D-line) (dimensionless). As to conditions: 293.15 K, Liquid, Standard Abbe refractometry.

± gives the expanded uncertainty stated by the source.

What is called refractive index is a measure of how strongly the sample bends light.

Take `Cc1ccccc1` [toluene]: the refractive index (100 kPa) is 1.4966 ± 0.0007.

Take `c1ccoc1` [furan]: the refractive index (101.23 kPa) came out at 1.4218 ± 0.0004.

The values above are taken from the NIST ThermoML archive (doi:10.1021/acs.jced.6b00424).
